As a reminder, the IC50 is the point on the concentration scale where inhibition reaches its midpoint.

One test deals with HBV. Description: HBsAg and HBeAg secretion in HepG2.2.15 cells. To be noted: Hepatitis B virus, 72 h, incubated for 3 days, supernatant, CLIA ELISA. Format: cell-based. How it is done: To evaluate the impact on HBV antigen expression and secretion, supernatants were collected on Day 11. HBV HBsAg and HBeAg levels were measured using CLIA ELISA Kits (Autobio Diagnostic #CL0310-2, #CL0312-2), according to the manufacturer's protocol. Briefly, 25 μL of supernatant per well were transferred to the respective antibody coated microtiter plate and 25 μL of enzyme conjugate reagent were added. The plate was incubated for 60 min on a shaker at room temperature before the wells were washed five times with washing buffer using an automatic washer. 25 μL of substrate A and B were added to each well. The plates were incubated on a shaker for 10 min at room temperature before luminescence was measured using an Envision luminescence reader (Perkin Elmer).
The potency of DHQ and THP and their variants against HBV infection were measured in HepG2.2.15 cells using HBsAg and HBeAg as read out.
HepG2.2.15 cells (Sells et al 1987 Proc Natl Acad Sci USA 84, 1005-1009) were cultured in 96 well plates (15.000 cells/well in 100 uL) in DMEM+GluTaMax-1 (GiBCO Cat. NO. 10569), 1% Pen Strep (Gibco Cat. No. 15140), 10% FBS (Clontech Cat. No. 631106), Geneticin […] (Invitrogen 10131035). The compunds were tested using three-fold serial dilutions in DMSO with a top concentration of 100 μM and 9 serial dilutions. Each compound was tested in quadricate. The cells were incubated for 3 days, supernatents were collected and HBsAg and HBeAg were measured as described in the Materials and Methods section.
On the technique in general: In an ELISA, binding on a coated surface is turned into a signal by an enzyme label.

A further test deals with PAPD5 variant 1. Description: Y3H ULTImate YChemH screen. In kind it is binding. More on the design: key: confidence score of A (scale A-D). To be noted: prey PAPD5 variant 1; cDNA Human placenta library. How it is done:
(§1) The two compounds were provided by Roche to HYBRIGENICS SERVICES SAS and tested for permeability and toxicity. Compounds were then screened against HYBRIGENICS's cDNA Human placenta library (PLA). The screens were carried out according to the optimized cell-to-cell mating protocol developed for Hybrigenics ULTImate Y2H™ using at different compound concentration (Table 2).
(§2) Clones obtained from the screen were picked in 96-well format and clones positive for growth under selective conditions (HIS+) were evaluated in a dependency assay using spot assays. Only clones that were able to grow on selective medium in the presence of the tagged compound were being picked up, processed (cell lysis, PCR, gene sequencing) and mapped for protein alignment using Blast analysis.
(§3) Both proteins PAPD5 (variant 1: NP_001035374; variant 2: NP_001035375) and PAPD7 (XP_005248291) were identified by a numerous number of fragments in the Y3H screen for both compounds (DHQ and THP) as described in the Materials and Method section. The identified proteins were ranked with a confidence score of A (scale A-D) by HYBRIGENICS (Table 6).

In the next test the test system is PAPD7. Nature of the test: Y3H ULTImate YChemH screen. To be noted: prey PAPD7; cDNA Human placenta library. More on the design: key: confidence score of A (scale A-D). In kind it is binding. How it is done:
as §1, §2, §3

The next test relates to PAPD5 variant 2. Nature of the test: Y3H ULTImate YChemH screen. Format: binding. More on the design: key: confidence score of A (scale A-D). To be noted: prey PAPD5 variant 2; cDNA Human placenta library. How it is done: as §1, §2, §3
Test [1] deals with T1, PAPD5 var1 (experimental fragment and full length) (Homo sapiens, UniProt Q8NDF8).
T1 construct: PAPD5 var1 full length; host or cells: diploid yeast from YHGX13 (prey) x YPT6AT (DHFR hook)
T1 sequence (Q8NDF8 1-698 isoform Q8NDF8-5): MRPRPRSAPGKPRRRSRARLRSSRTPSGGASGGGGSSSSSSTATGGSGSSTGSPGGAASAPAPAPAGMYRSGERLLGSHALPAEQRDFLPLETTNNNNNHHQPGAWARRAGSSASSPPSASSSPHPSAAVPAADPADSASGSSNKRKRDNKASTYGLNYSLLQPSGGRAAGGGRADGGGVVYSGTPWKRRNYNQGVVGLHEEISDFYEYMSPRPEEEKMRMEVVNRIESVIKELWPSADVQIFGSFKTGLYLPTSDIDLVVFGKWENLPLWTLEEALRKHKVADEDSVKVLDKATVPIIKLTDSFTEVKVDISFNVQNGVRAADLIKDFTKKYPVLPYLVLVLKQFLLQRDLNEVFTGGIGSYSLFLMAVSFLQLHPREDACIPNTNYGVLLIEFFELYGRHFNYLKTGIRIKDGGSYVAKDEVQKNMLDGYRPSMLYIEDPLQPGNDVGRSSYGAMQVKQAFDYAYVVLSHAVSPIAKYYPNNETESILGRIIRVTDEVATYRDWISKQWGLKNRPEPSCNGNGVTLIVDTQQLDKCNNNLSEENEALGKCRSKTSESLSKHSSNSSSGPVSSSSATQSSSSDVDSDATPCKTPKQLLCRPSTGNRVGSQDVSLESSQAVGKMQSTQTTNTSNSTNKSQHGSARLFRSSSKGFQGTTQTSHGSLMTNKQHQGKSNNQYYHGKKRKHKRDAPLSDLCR
Description: Y3H ULTImate YChemH competition with free compound. In kind it is binding. Conditions: probe HBX129653 or HBX129654 1 μM, free compound 0-20 μM, FIG. 3-6. How it is done:
(§4) The competition assays were performed on selective medium at 8 concentrations of the free compound (0, 0.25, 0.5, 1, 2, 5, 10 and 20 μM) and a consistent concentration for the tagged Y3H-compound (1 μM).

The target in test [2] is T2, PAPD7 varX1 (experimental fragment and full length) (Homo sapiens, UniProt Q5XG87).
T2 construct: PAPD7 var1 full length; host or cells: diploid yeast from YHGX13 (prey) x YPT6AT (DHFR hook)
T2 sequence (Q5XG87 whole entry, the tested form may be a part): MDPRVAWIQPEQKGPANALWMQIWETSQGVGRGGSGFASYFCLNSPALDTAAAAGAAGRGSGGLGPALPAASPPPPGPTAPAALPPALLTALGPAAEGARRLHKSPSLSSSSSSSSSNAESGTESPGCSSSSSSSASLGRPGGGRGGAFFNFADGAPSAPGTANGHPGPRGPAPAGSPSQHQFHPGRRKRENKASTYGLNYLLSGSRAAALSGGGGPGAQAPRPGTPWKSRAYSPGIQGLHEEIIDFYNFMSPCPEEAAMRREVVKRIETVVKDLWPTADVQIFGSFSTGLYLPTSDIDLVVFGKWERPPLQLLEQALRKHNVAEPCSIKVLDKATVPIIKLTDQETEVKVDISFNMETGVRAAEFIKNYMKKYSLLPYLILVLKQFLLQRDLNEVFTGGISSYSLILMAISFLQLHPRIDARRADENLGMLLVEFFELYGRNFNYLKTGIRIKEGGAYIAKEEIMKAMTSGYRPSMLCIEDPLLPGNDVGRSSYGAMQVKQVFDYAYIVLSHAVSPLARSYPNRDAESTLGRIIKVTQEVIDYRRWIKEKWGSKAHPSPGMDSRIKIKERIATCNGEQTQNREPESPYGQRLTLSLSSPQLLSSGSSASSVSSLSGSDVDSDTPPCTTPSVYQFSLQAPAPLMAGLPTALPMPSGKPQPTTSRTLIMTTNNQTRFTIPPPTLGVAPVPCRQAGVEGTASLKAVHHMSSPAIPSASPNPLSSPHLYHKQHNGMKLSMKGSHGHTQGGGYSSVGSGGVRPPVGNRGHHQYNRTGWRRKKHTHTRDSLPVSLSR
Nature of the test: Y3H ULTImate YChemH competition with free compound. Format: binding. Conditions: probe HBX129653 or HBX129654 1 μM, free compound 0-20 μM, FIG. 3-6. The procedure: as §4

Test [3] has as its system PAPD5 variant 1 and variant 2 prey fragments. Nature of the test: Y3H ULTImate YChemH 1-by-1 validation, prey fragments. Format: binding, human. Conditions: PAPD5 variant 1 and 2 fragments; tested at 5, 10 and 20 μM; FIG. 1. The procedure: (§5) In this validation step each one identified fragment prey and one chemical probe (HBX129653, HBX129654) is tested in a 1-by-1 experiment. The plasmids from 3 selected preys from the screening library were extracted from the yeast cells, amplified in E. coli and re-transformed into YHGX13 yeast cells. For each interaction, DO1, 1/10, 1/100 and 1/1000 of the diploid yeast culture expressing both hook and prey constructs were spotted on a selective medium without tryptophan, leucine and histidine and supplemented with the chemical probe and FK506. Interactions were tested in duplicate. One plate was used per chemical compound and concentration (DMSO, 5, 10 and 20 μM of HBX129653, 5, 10 and 20 μM of HBX129654, 5 μM of HBX24786 Trimethoprim (TMP) and 5 μM of HBX129634 (TMP-PEG5-OH)). Plates were incubated at 30° C. for 3 days.
(§6) In a first validation step three fragments identified in the first screen were selected for the 1-by-1 validation assay (as described in the Materials and Method section) and tested at three different concentrations (5, 10 and 20 μM) (Table 7).

The next test deals with PAPD7 prey fragment. The test is described as above. In kind it is binding, human. To be noted: tested at 5, 10 and 20 μM, FIG. 1. The procedure: as §5, §6
The target in another test is T3, PAPD5 var1 full length (Homo sapiens, UniProt Q8NDF8).
T3 construct: PAPD5 var1 full length; host or cells: diploid yeast from YHGX13 (prey) x YPT6AT (DHFR hook)
T3 sequence (Q8NDF8 1-698 isoform Q8NDF8-5): as the sequence (Q8NDF8 1-698 isoform Q8NDF8-5) above
Nature of the test: Y3H ULTImate YChemH 1-by-1 validation, full length proteins. In kind it is binding. Conditions: tested at 5, 10 and 20 μM, FIG. 2. The source says: (§7) The coding sequence of full-length PAPD5var1 (NM_001040284.2) and PAPD7varX1 (XM_005248234.2) were reconstituted from an N-terminal codon-optimized gene fragment (to remove high GC content) and commercially available clones of the C-terminal regions of the proteins and cloned in frame with the Gal4 Activation Domain (AD) into plasmid pP7 (AD-Prey), derived from the original pGADGH (Bartel et al., 1993 in Cellular interactions in development: A practical approach. ed. Hartley, D. A., Oxford University Press, Oxford, pp. 153-179). The constructs were checked by sequencing the entire inserts. For each prey, a mini-mating was carried out between YHGX13 (Y187 ade2-101::IoxP-kanMX-IoxP, matα) transformed with the prey plasmids and YPT6AT yeast cells (mata) transformed with the DHFR hook (Dihydrofolate reductase) to produce a diploid yeast culture. For each interaction, DO1, 1/10, 1/100 and 1/1000 of the diploid yeast culture expressing both hook and prey constructs were spotted on a selective medium without tryptophan, leucine and histidine and supplemented with the chemical probe and FK506. Interactions were tested in duplicate. One plate was used per chemical compound and concentration (DMSO, 5, 10 and 20 μM of HBX129653, 5, 10 and 20 μM of HBX129654, 5 μM of HBX24786 Trimethoprim (TMP) and 5 μM of HBX129634 (TMP-PEG5-OH)). Plates were incubated at 30° C. for 3 days.
(§8) In a second validation step, full length proteins for PAPD5 and PAPD7 were synthesized and used for 1-by-1 validation (as described in the Materials and Method section) with DHQ and THP (Table 8).

The next test has as its target T4, PAPD7 var1 full length (Homo sapiens, UniProt Q5XG87).
T4 construct: PAPD7 var1 full length; host or cells: diploid yeast from YHGX13 (prey) x YPT6AT (DHFR hook)
Described as above. In kind it is binding. Conditions: tested at 5, 10 and 20 μM, FIG. 2.
Source text: as §7, §8

The next test deals with hepatitis C virus (HCV). Nature of the test: Activity against hepatitis C virus (data not shown).

Like-named read-outs stand apart in the source and are kept apart here.

T4 sequence (Q5XG87 whole entry): as the sequence (Q5XG87 whole entry, the tested form may be a part) above

Turning to `COc1cc2c(cc1OCCOCCOCCOCCOCCOCCOc1c(OC)cc(Cc3cnc(N)nc3N)cc1OC)C[C@@H](C(C)(C)C)n1cc(C(=O)O)c(=O)cc1-2` [HBX129653], the half-maximal inhibitory concentration (IC50) with HBV (read-out: IC50 HBsAg) is 1180 nM. In addition, the Confidence score entry in the test with PAPD5 variant 1 and in the test on PAPD7 was “A” each time.
Turning to `COc1cc(Cc2cnc(N)nc2N)cc(OC)c1OCCOCCOCCOCCOCCOCCOc1cc(N2CCc3nc(-c4ncccn4)ncc3[C@H]2C)cc(F)c1F` [HBX129654], the IC50 with HBV (read-out: IC50 HBsAg) amounted to 299 nM. For the same compound, the Confidence score result with PAPD5 variant 2 and in the test with PAPD7 was “A” each time.
For the compound `COCCCOc1cc2c(cc1OC)-c1cc(=O)c(C(=O)O)cn1[C@@H](C(C)C)C2` [INACT653], the “competition of free compound with chemical probe” value (from here on “competition of free compound”) in test [1] and in [2] was “less binding affinity” in each case.
Consider `COc1cccc(-c2ncc3c(n2)CCN(c2cc(F)c(F)c(OC)c2)C3)n1` [INACT654], for which the IC50 in the test with HBV (read-out: IC50 HBsAg) is greater than 25000 nM.
With `COCCCOc1cc2c(cc1Cl)-c1cc(=O)c(C(=O)O)cn1[C@H](C(C)C)C2` [MOL653], the IC50 with HBV (read-out: IC50 HBeAg) is 7 nM; in the test on HBV (read-out: IC50 HBsAg), 3 nM. Further, the “1-by-1 validation of binding to prey fragments” value (in test [3]; in the test with PAPD7 prey fragment) was “specific binders” in each case. Besides, the “1-by-1 validation of interaction with full length protein” value at PAPD5 var1 full length and at PAPD7 var1 full length was “confirmed at the lowest tested concentration” throughout. Also, the “competition of free compound” value in [1] and in [2] was “competition could be observed” in each case. The “activity against hepatitis C virus (HCV)” value with hepatitis C virus (HCV) is “inactive”.
On to `COc1cc(N2CCc3nc(-c4ncccn4)ncc3[C@H]2C)cc(F)c1F` [MOL654], for which the IC50 in the test on HBV (read-out: IC50 HBsAg) was determined as 3 nM. In addition, the “1-by-1 validation of binding to prey fragments” value (in [3]; in the test on PAPD7 prey fragment) was “specific binders” throughout. For the same compound, the “1-by-1 validation of interaction with full length protein” value at PAPD5 var1 full length and at PAPD7 var1 full length was “confirmed at the lowest tested concentration” throughout. The “competition of free compound” value in [1] and in test [2] was “competition could be observed” throughout. Besides, the “activity against hepatitis C virus (HCV)” value with hepatitis C virus (HCV) is “inactive”.

The record behind these values is US11191775B2, “PAPD5 and PAPD7 inhibitors for treating a hepatitis B infection” (HOFFMANN-LA ROCHE INC., priority 2016, dated 2021).
